Data set [1] addresses T1, VMAT2 (Rattus norvegicus, UniProt Q01827).
T1 construct: conducted using isolated synaptic vesicle preparations; from tissue; host or cells: rat striatum, isolated synaptic vesicles
The data set can be described thus: [3H]Dopamine ([3H]DA) uptake assay, vesicular preparation. The data set is classed as biochemical.
Experimental: [^3H]Dopamine ([^3H]DA) Uptake Assay, Vesicular Preparation
Homogenates were centrifuged (2,000 g for 10 min at 4° C.), and then the supernatants were centrifuged (10,000 g for 30 min at 4° C.). Pellets were resuspended in 2 ml of 0.32 M sucrose solution and subjected to osmotic shock by adding 7 ml of ice-cold MilliQ water to the preparation. After 1 min, osmolarity was restored by adding 900 μl of 0.25 M HEPES buffer and 900 μl of 1.0 M potassium tartrate solution. Samples were centrifuged (20,000 g for 20 min at 4° C.), and the supernatants were centrifuged (55,000 g for 1 hr at 4° C.), followed by addition of 100 μl of 10 mM MgSO4, 100 μl of 0.25 M HEPES and 100 μl of 1.0 M potassium tartrate solution prior to the final centrifugation (100,000 g for 45 min at 4° C.). Final pellets were resuspended in 2.4 ml of assay buffer (25 mM HEPES, 100 mM potassium tartrate, 50 μM EGTA, 100 μM EDTA, 1.7 mM ascorbic acid, 2 mM ATP-Mg^2+, pH 7.4). Aliquots of the vesicular suspension (100 μl) were added to tubes containing assay buffer, various concentrations of compound (0.1 nM-10 mM) and 0.1 μM [^3H]DA in a final volume of 500 and incubated at 37° C. for 8 min. […] Reactions were terminated by filtration, and radioactivity retained by the filters was determined by liquid scintillation spectrometry (Tri-Carb 2100TR liquid scintillation analyzer; PerkinElmer Life and Analytical Sciences, Boston, Mass.).

Data set [2] deals with VMAT2 over hERG, DAT and SERT. The data set is described as follows: Lead compound criteria: 30-fold selectivity for VMAT2 over hERG, DAT and SERT. The settings on record: criterion: 30-fold selectivity for VMAT2 over hERG.
Text: Accordingly, this test assessed the potential of the tested compounds to produce cardiac arrhythmias via interaction at this off-target site. The criterion for compounds to be considered leads was a 30-fold selectivity for VMAT2 over hERG.
The target in data set [3] is T2, serotonin transporter (SERT) (Rattus norvegicus, UniProt P31652).
T2 construct: from tissue
T2 sequence (P31652 whole entry): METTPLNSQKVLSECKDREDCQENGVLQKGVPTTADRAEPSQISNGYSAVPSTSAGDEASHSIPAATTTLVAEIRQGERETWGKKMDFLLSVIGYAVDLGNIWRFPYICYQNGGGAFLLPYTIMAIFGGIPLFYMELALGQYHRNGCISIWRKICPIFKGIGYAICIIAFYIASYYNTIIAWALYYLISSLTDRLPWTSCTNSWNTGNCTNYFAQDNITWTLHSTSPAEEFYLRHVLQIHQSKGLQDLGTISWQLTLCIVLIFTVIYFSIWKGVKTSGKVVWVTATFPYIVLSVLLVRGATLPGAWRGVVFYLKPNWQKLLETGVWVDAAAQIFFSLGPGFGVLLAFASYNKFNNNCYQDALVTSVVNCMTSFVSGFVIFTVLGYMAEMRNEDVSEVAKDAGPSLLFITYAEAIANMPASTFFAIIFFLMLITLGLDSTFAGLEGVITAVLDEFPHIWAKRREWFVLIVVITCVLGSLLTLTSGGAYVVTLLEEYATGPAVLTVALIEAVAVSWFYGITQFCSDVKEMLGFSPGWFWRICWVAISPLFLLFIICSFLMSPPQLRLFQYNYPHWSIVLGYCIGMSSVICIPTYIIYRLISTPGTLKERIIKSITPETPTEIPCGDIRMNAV
The data set can be described thus: [3H]5-HT uptake assay, striatal synaptosomal preparation. The data set is classed as biochemical. Conditions: rat striatal synaptosomes, GBR-12935 (100 nM) in buffer; read-out: SERT [3H]5-HT Uptake Inhibition Mean ± SEM (Ki). On the procedure:
(§1) [^3H]DA and [^3H]5-HT Uptake Assay, Synaptosomal Preparation
(§2) [^3H]DA and [^3H]5-HT uptake into striatal synaptosomes was determined to evaluate compound inhibition of the dopamine transporter (DAT) and the serotonin transporter (SERT), respectively. […] Homogenates were centrifuged at 2000 g for 10 min at 4° C., and resulting supernatants were centrifuged at 20,000 g for 17 min at 4° C. […] Assays were performed in duplicate in a total volume of 500 (for DAT assays) or 250 μL (for SERT assays). […] Reactions were terminated by addition of 3 mL of ice-cold assay buffer and subsequent filtration and radioactivity retained by the filters was determined by liquid scintillation spectrometry (Tri-Carb 2100TR liquid scintillation analyzer; PerkinElmer Life and Analytical Sciences, Boston, Mass.).

Data set [4] addresses T3, dopamine transporter (DAT) (Rattus norvegicus, UniProt P23977).
T3 construct: from tissue; host or cells: rat striatum, synaptosomes
The data set can be described thus: [3H]DA uptake assay, striatal synaptosomal preparation. The data set is classed as biochemical. The settings on record: rat striatal synaptosomes; read-out: DAT [3H]DA Uptake Inhibition Mean ± SEM (Ki). As for the experimental part:
as §1, §2

Data set [5] concerns the target T1, VMAT2. The data set is described as follows: [3H]Dihydrotetrabenazine ([3H]DTBZ) binding assay, vesicular preparation. The settings on record: rat brain synaptic vesicles, 3 nM [3H]DTBZ; read-out: Inhibition of [3H]DTBZ binding (Ki) VMAT2.
Experimental: [^3H]Dihydrotetrabenazine ([^3H]DTBZ) Binding Assay, Vesicular Preparation
The resulting supernatant (S1) was then centrifuged at 22,000 g for 10 min at 4° C. The synaptosomal pellets (P2) were homogenized in 18 mL of ice-cold Milli-Q water and exposed for 5 min for lysing synaptosomes. Osmolarity was restored by addition of 2 mL of 25 mM HEPES with 100 mM dipotassium tartrate (pH 7.5). Samples were centrifuged at 20,000 g for 20 min at 4° C. to remove lysed synaptosomal membranes. MgSO4 (1 mM) was added to the supernatant (S3), and was centrifuged at 100,000 g for 45 min at 4° C. […] Aliquot parts (100 μL) of suspension of vesicle membrane protein were incubated in assay buffer (25 mM HEPES, 100 mM dipotassium tartrate, 5 mM MgSO4, 0.1 mM EDTA and 0.05 mM EGTA, pH 7.5, at 25° C.) in the presence of 3 nM [^3H]DTBZ and at least 7 concentrations (1 nM-1 mM) of compound for 1 hr at room temperature. Nonspecific binding was determined in the presence of 20 μM tetrabenazine, a standard compound. Assays were performed in duplicate using a 96-well plate format. Reactions were terminated by filtration of samples on a Unifilter-96 GF/B filter plates (presoaked in 0.5% polyethylenimine), using a FilterMate harvester (Packard BioScience Co., Meriden, Conn.).
After washing 5 times with 350 μL of the ice-cold wash buffer (25 mM HEPES, 100 mM dipotassium tartrate, 5 mM MgSO4 and 10 mM NaCl, pH 7.5), filter plates were dried, sealed and each well filled with 40 μL Packard's MicroScint 20 cocktail. Bound [^3H]DTBZ was measured using a Packard TopCount NXT scintillation counter with a Packard Windows NT based operating system.
In a further data set the target is T4, hERG channel (Homo sapiens, UniProt Q12809).
T4 construct: expressed in transfected cells
T4 sequence (Q12809 whole entry): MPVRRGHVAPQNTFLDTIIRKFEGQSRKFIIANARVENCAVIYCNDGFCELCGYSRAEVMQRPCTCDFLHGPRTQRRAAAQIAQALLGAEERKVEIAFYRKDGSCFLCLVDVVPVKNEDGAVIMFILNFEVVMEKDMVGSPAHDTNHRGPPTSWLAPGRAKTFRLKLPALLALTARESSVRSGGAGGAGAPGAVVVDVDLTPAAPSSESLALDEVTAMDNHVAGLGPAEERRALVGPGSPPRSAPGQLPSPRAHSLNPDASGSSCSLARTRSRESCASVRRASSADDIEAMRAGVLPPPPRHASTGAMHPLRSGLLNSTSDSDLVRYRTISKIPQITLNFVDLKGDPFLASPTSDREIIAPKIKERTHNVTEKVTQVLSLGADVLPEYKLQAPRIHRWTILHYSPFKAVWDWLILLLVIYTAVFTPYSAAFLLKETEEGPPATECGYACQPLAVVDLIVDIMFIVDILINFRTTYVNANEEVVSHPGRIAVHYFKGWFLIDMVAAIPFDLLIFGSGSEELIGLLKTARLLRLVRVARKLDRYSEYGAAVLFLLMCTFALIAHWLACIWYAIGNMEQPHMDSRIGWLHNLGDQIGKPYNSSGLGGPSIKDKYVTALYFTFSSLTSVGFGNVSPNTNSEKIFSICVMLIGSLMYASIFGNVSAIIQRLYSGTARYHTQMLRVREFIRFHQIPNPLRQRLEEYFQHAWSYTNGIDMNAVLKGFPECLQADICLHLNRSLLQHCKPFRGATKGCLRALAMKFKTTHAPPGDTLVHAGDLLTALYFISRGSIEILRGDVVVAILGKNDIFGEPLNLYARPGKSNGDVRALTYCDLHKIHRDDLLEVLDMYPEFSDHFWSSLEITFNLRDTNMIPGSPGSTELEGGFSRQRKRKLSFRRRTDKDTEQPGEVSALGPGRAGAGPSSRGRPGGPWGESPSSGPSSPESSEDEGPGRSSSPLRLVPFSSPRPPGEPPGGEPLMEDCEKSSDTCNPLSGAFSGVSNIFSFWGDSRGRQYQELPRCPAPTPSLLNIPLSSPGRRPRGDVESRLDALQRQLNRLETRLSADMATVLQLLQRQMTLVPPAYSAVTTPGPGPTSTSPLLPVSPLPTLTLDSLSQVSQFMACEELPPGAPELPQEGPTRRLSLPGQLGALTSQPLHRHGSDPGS
The data set can be described thus: [3H]Dofetilide binding assay, HEK-293 cell membrane preparation. The settings on record: HEK-293 cell membranes expressing hERG, 5 nM [3H]dofetilide; read-out: hERG [3H]Dofetilide Binding Inhibition Mean ± SEM (IC50). As for the experimental part:
[^3H]Dofetilide Binding Assay, HEK-293 Cell Membrane Preparation
[^3H]Dofetilide binding assays were conducted using commercially available HEK-293 cell membranes which stably express the hERG channel. Membranes were suspended in assay buffer (50 mM Tris, 10 mM KCl, 1 mM MgCl2, pH 7.4) prior to the experiment. Assays were performed in duplicate in a total volume of 250 μL. Aliquots of the HEK-293 cell membrane suspension which contained 5 μg membrane protein were added to tubes containing assay buffer, 5 nM [^3H]dofetilide and a range of concentrations of analog (10 nM-100 μM). Nonspecific binding was determined in the presence of amitriptyline (1 mM). Samples were incubated for 1 hr. at 24° C., followed by rapid filtration. Radioactivity retained by the filters was determined by liquid scintillation spectrometry as described above for the [^3H]DA uptake assay. The affinity for the [^3H]dofetilide binding site on the hERG channel expressed in the HEK-293 cellular membrane was determined from the analog concentration response curves.

[6] abbreviates: rat striatal synaptic vesicles, 0.1 μM [3H]DA, read-out: [3H]DA Uptake (Ki) VMAT2.

Broadly, the Ki is the equilibrium dissociation constant of an inhibitor or competing ligand from its target. The term IC50 denotes the concentration needed to halve the response being measured.

T1 sequence (Q01827 whole entry): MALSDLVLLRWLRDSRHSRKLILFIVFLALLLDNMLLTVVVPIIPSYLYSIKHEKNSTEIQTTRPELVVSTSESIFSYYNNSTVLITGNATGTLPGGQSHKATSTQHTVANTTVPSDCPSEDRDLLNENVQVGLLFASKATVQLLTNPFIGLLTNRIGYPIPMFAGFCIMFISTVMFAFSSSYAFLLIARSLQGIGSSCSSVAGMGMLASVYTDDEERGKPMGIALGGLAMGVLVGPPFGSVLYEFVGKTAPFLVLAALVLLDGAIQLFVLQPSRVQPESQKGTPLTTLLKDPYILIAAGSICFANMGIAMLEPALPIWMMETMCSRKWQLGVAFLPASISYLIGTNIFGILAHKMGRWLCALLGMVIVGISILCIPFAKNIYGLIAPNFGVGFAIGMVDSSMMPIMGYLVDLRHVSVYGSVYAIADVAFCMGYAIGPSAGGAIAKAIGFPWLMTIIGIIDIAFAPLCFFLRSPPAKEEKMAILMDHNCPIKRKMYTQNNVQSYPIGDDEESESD
T3 sequence (P23977 whole entry): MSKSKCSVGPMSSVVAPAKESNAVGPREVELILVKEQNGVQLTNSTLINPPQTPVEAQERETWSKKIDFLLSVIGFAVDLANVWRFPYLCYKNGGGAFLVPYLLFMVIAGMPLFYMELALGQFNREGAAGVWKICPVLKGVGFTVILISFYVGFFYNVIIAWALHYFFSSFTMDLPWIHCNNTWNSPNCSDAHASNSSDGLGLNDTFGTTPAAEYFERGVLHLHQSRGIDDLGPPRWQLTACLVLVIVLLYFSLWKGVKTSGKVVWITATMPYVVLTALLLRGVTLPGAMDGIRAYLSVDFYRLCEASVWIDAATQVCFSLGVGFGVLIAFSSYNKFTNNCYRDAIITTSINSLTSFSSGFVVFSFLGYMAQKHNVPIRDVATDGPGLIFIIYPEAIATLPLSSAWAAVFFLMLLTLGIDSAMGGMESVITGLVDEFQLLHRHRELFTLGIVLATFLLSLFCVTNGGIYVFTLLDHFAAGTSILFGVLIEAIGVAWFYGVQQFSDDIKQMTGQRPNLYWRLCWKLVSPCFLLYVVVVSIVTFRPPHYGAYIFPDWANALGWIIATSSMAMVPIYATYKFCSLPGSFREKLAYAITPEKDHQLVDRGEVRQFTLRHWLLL

Regarding `COc1ccccc1CCC1CCN(CCc2ccccc2OC)CC1` [Compound 12, 1,4-bis(2-methoxyphenethyl)piperidine], the Ki is 9.3 ± 0.6 nM at VMAT2 [1] (setting [6]); 9 to 20 nM on VMAT2 [1] (synaptic vesicle preparations, summary of Table 1, read-out: inhibition of [3H]DA uptake, Ki); 0.12 ± 0.01 µM in data set [3]; 3.45 ± 0.45 µM in data set [4]; 190 ± 8.8 nM at VMAT2 [5]. For the same compound, the “lead compound status (30-fold selectivity for VMAT2 over hERG, DAT and SERT)” value in data set [2] is “successfully met the criteria for lead compound status”. For the same compound, the IC50 at hERG channel is 1070 ± 90.6 nM.
`COc1ccccc1CCC1CCN(CCc2ccccc2)CC1` [Compound 13]: the Ki on VMAT2 [1] (setting [6]) came to 22 ± 2.8 nM; in data set [3], 0.75 ± 0.18 µM; in data set [4], 3.56 ± 1.21 µM; on VMAT2 [5], 690 ± 50 nM. In data set [2], the “lead compound status (30-fold selectivity for VMAT2 over hERG, DAT and SERT)” value is recorded as “successfully met the criteria for lead compound status”. For the same compound, at hERG channel, the concentration for half-maximal inhibition (IC50) came out at 1650 ± 670 nM.
As to `COc1ccc(CCC2CCN(CCc3ccccc3Cl)CC2)cc1` [Compound 24], the Ki on VMAT2 [1] (setting [6]) worked out at 40 ± 7 nM; in data set [3] it was 4.15 ± 1.45 µM; in data set [4], 5.16 ± 1.25 µM; at VMAT2 [5], 230 ± 20 nM. Further, the “lead compound status (30-fold selectivity for VMAT2 over hERG, DAT and SERT)” value in data set [2] is reported as “successfully met the criteria for lead compound status”. For the same compound, the IC50 at hERG channel was 2090 ± 391 nM.
`COc1cccc(CCN2CCN(CCc3ccccc3)CC2)c1` [Compound 61]: the Ki is 98 ± 16 nM at VMAT2 [1] (setting [6]), 6.92 ± 1.35 µM in data set [3], 17.2 ± 4.52 µM in data set [4] and 1300 ± 330 nM at VMAT2 [5]. For the same compound, the “lead compound status (30-fold selectivity for VMAT2 over hERG, DAT and SERT)” value in data set [2] was “successfully met the criteria for lead compound status”. Moreover, at hERG channel, the IC50 was 4230 ± 860 nM.
For the compound `COc1ccc(CCN2CCN(CCc3ccccc3)CC2)cc1` [Compound 62], the inhibition constant Ki on VMAT2 [1] (setting [6]) came to 100 ± 11 nM; in data set [3], 3.72 ± 0.02 µM; in data set [4], 11.6 ± 3.08 µM; at VMAT2 [5], 4630 ± 1310 nM. The “lead compound status (30-fold selectivity for VMAT2 over hERG, DAT and SERT)” value in data set [2] is recorded as “successfully met the criteria for lead compound status”. Moreover, the IC50 at hERG channel was determined as 9190 ± 375 nM.

The values are drawn from US20170226072A1, “1,4-Disubstituted Piperidines, 1,4-Disubstituted Piperazines, 1,4-Disubstituted Diazepines, and 1,3-Disubstituted Pyrrolidine Compounds” (University of Kentucky Research Foundation, priority 2013, published 2017).
